According to the NIST ThermoML archive (doi:10.1016/j.jct.2017.11.007):

Assay: mn = molality of the nth substance listed, in mol/kg
Details: 74.66 kPa, Liquid; for speed of sound: Frequency=3 MHz, Single path-length method; for mass density: Vibrating tube method

Cc1cc(C)nc([N-]S(=O)(=O)c2ccc(N)cc2)n1.[Na+] + O
Details | mass density [kg/m3] | speed of sound [m/s]
278.15 K, m1 = 0.00501 | 1000.54 | 1427.9
278.15 K, m1 = 0.00799 | 1000.88 | 1428.7
278.15 K, m1 = 0.01 | 1001.11 | 1429.2
278.15 K, m1 = 0.01488 | 1001.67 | 1430.3
278.15 K, m1 = 0.01983 | 1002.23 | 1431.3
278.15 K, m1 = 0.02501 | 1002.81 | 1432.3
278.15 K, m1 = 0.02961 | 1003.34 | 1433.5
278.15 K, m1 = 0.03503 | 1003.95 | 1434.6
278.15 K, m1 = 0.0401 | 1004.52 | 1435.7
278.15 K, m1 = 0.04493 | 1005.06 | 1436.6
278.15 K, m1 = 0.04993 | 1005.63 | 1437.7
278.15 K, m1 = 0.05504 | 1006.2 | 1438.8
278.15 K, m1 = 0.05966 | 1006.73 | 1439.9
283.15 K, m1 = 0.00501 | 1000.27 | 1448.8
283.15 K, m1 = 0.00799 | 1000.6 | 1449.4
283.15 K, m1 = 0.01 | 1000.83 | 1449.9
283.15 K, m1 = 0.01488 | 1001.37 | 1450.9
283.15 K, m1 = 0.01983 | 1001.92 | 1451.9
283.15 K, m1 = 0.02501 | 1002.5 | 1452.9
283.15 K, m1 = 0.02961 | 1003.01 | 1453.9
283.15 K, m1 = 0.03503 | 1003.61 | 1455
283.15 K, m1 = 0.0401 | 1004.18 | 1456
283.15 K, m1 = 0.04493 | 1004.71 | 1456.8
283.15 K, m1 = 0.04993 | 1005.27 | 1457.8
283.15 K, m1 = 0.05504 | 1005.83 | 1458.8
283.15 K, m1 = 0.05966 | 1006.35 | 1459.8
288.15 K, m1 = 0.00501 | 999.659 | 1467.2
288.15 K, m1 = 0.00799 | 999.989 | 1467.8
288.15 K, m1 = 0.01 | 1000.21 | 1468.3
288.15 K, m1 = 0.01488 | 1000.75 | 1469.2
288.15 K, m1 = 0.01983 | 1001.29 | 1470.1
288.15 K, m1 = 0.02501 | 1001.86 | 1471.1
288.15 K, m1 = 0.02961 | 1002.36 | 1472
288.15 K, m1 = 0.03503 | 1002.95 | 1473
288.15 K, m1 = 0.0401 | 1003.51 | 1474
288.15 K, m1 = 0.04493 | 1004.03 | 1474.8
288.15 K, m1 = 0.04993 | 1004.58 | 1475.7
288.15 K, m1 = 0.05504 | 1005.14 | 1476.7
288.15 K, m1 = 0.05966 | 1005.65 | 1477.6
293.15 K, m1 = 0.00501 | 998.758 | 1483.5
293.15 K, m1 = 0.00799 | 999.081 | 1484
293.15 K, m1 = 0.01 | 999.302 | 1484.5
293.15 K, m1 = 0.01488 | 999.834 | 1485.3
293.15 K, m1 = 0.01983 | 1000.37 | 1486.2
293.15 K, m1 = 0.02501 | 1000.92 | 1487.1
293.15 K, m1 = 0.02961 | 1001.42 | 1487.9
293.15 K, m1 = 0.03503 | 1002 | 1488.9
293.15 K, m1 = 0.0401 | 1002.55 | 1489.8
293.15 K, m1 = 0.04493 | 1003.07 | 1490.5
293.15 K, m1 = 0.04993 | 1003.61 | 1491.4
293.15 K, m1 = 0.05504 | 1004.16 | 1492.3
293.15 K, m1 = 0.05966 | 1004.66 | 1493.2
298.15 K, m1 = 0.00501 | 997.59 | 1497.7
298.15 K, m1 = 0.00799 | 997.912 | 1498.2
298.15 K, m1 = 0.01 | 998.128 | 1498.6
298.15 K, m1 = 0.01488 | 998.655 | 1499.4
298.15 K, m1 = 0.01983 | 999.182 | 1500.2
298.15 K, m1 = 0.02501 | 999.733 | 1501.1
298.15 K, m1 = 0.02961 | 1000.22 | 1501.9
298.15 K, m1 = 0.03503 | 1000.79 | 1502.8
298.15 K, m1 = 0.0401 | 1001.34 | 1503.6
298.15 K, m1 = 0.04493 | 1001.85 | 1504.3
298.15 K, m1 = 0.04993 | 1002.39 | 1505.2
298.15 K, m1 = 0.05504 | 1002.93 | 1506
298.15 K, m1 = 0.05966 | 1003.42 | 1506.8
303.15 K, m1 = 0.00501 | 996.185 | 1510.1
303.15 K, m1 = 0.00799 | 996.504 | 1510.6
303.15 K, m1 = 0.01 | 996.718 | 1510.9
303.15 K, m1 = 0.01488 | 997.238 | 1511.7
303.15 K, m1 = 0.01983 | 997.76 | 1512.4
303.15 K, m1 = 0.02501 | 998.303 | 1513.2
303.15 K, m1 = 0.02961 | 998.79 | 1514
303.15 K, m1 = 0.03503 | 999.357 | 1514.8
303.15 K, m1 = 0.0401 | 999.892 | 1515.6
303.15 K, m1 = 0.04493 | 1000.4 | 1516.3
303.15 K, m1 = 0.04993 | 1000.93 | 1517.1
303.15 K, m1 = 0.05504 | 1001.47 | 1517.8
303.15 K, m1 = 0.05966 | 1001.95 | 1518.6
308.15 K, m1 = 0.00501 | 994.563 | 1520.7
308.15 K, m1 = 0.00799 | 994.878 | 1521.2
308.15 K, m1 = 0.01 | 995.089 | 1521.5
308.15 K, m1 = 0.01488 | 995.605 | 1522.2
308.15 K, m1 = 0.01983 | 996.12 | 1523
308.15 K, m1 = 0.02501 | 996.661 | 1523.7
308.15 K, m1 = 0.02961 | 997.14 | 1524.4
308.15 K, m1 = 0.03503 | 997.703 | 1525.2
308.15 K, m1 = 0.0401 | 998.234 | 1525.9
308.15 K, m1 = 0.04493 | 998.733 | 1526.6
308.15 K, m1 = 0.04993 | 999.258 | 1527.3
308.15 K, m1 = 0.05504 | 999.792 | 1528
308.15 K, m1 = 0.05966 | 1000.27 | 1528.7
